Assay results from patent US20200037600A1, “MESOIONIC IMIDAZOPYRIDINES AS INSECTICIDES” (Bayer Aktiengesellschaft, priority 2017, published 2020).
Read-outs that look alike come from different tables or passages of the source.

Experiments:
Musca domestica = Musca domestica test; assay type: in vivo; conditions: application rate 100 ppm; adult houseflies; after 2 days
Protocol: (§1) Solvent: dimethyl sulfoxide
(§2) To produce a suitable active compound formulation, 10 mg of active compound are mixed with 0.5 ml of dimethyl sulfoxide, and the concentrate is diluted with water to the desired concentration.
Vessels containing a sponge treated with sugar solution and the active compound formulation of the desired concentration are populated with 10 adult houseflies (Musca domestica).
After 2 days, the kill in % is determined. 100% means that all of the flies have been killed; 0% means that none of the flies have been killed.

Myzus persicae [1] = assay: Myzus persicae spray test; assay type: in vivo; conditions: application rate 500 g/ha, Chinese cabbage leaf discs, after 5 days; for pest or weed control at 500 g/ha: Myzus persicae, foliar, 120 h, read-out: efficacy
Protocol: Myzus persicae—Spray Test
(§3) Solvent: 78 parts by weight of acetone • • 1.5 parts by weight of dimethylformamide
(§4) Emulsifier: alkylaryl polyglycol ether
(§5) To produce a suitable active compound formulation, 1 part by weight of active compound is dissolved with the specified parts by weight of solvent and made up to the desired concentration with water containing an emulsifier concentration of 1000 ppm. To produce further test concentrations, the formulation is diluted with emulsifier-containing water.
Discs of Chinese cabbage leaves (Brassica pekinensis) infested by all stages of the green peach aphid (Myzus persicae) are sprayed with an active compound formulation of the desired concentration.
(§6) After 5 days, the efficacy in % is determined. 100% means that all the aphids have been killed; 0% means that no aphids have been killed.

Myzus persicae [2] = assay: Myzus persicae oral test; assay type: in vivo; conditions: after 5 days; for pest or weed control at 4 ppm / pest or weed control at 20 ppm: Myzus persicae, po, 120 h, read-out: efficacy
Protocol: Solvent: 100 parts by weight of acetone
To produce a suitable active compound formulation, 1 part by weight of active compound is dissolved with the stated parts by weight of solvent and made up to the desired concentration with water.
50 μl of the active compound formulation are transferred into microtitre plates and made up to a final volume of 200 μl with 150 μl of IPL41 insect medium (33%+15% sugar). Subsequently, the plates are sealed with parafilm, which a mixed population of green peach aphids (Myzus persicae) within a second microtitre plate is able to puncture and imbibe the solution.
as §6

Diabrotica balteata = Diabrotica balteata spray test; assay type: in vivo; conditions: application rate 160 μg/well, beetle larvae on germinated wheat grains, after 7 days; for pest or weed control at 160 µg/disc, 160 µg/well: Diabrotica balteata, 168 h, read-out: efficacy
Protocol: Diabrotica balteata—Spray Test
as §3, §4, §5
Pre-swollen wheat grains (Triticum aestivum) are incubated in a multiwell plate filled with agar and a little water for one day (5 seed grains per well). The germinated wheat grains are sprayed with an active compound preparation of the desired concentration. Subsequently, each cavity is infected with 10-20 beetle larvae of Diabrotica balteata.
After 7 days, the efficacy in % is determined. 100% means that all maize plants have grown as in the untreated, uninfected control; 0% means that no maize plant has grown.

[3] = log P by HPLC (EEC directive 79/831 Annex V.A8); assay type: physicochemical
Protocol: The log P values reported in the tables and preparation examples above were determined in accordance with EEC directive 79/831 Annex V.A8 by HPLC (High Performance Liquid Chromatography) using a reversed-phase column (C18). Temperature 43° C. The calibration is effected with unbranched alkan-2-ones (having 3 to 16 carbon atoms), for which the log P values are known.

Ctenocephalides felis = Ctenocephalides felis in vitro contact test with adult cat fleas; assay type: in vivo; conditions: application rate 5 μg/cm^2 (=500 g/ha), after 48 h
Protocol: Ctenocephalides felis—In Vitro Contact Tests with Adult Cat Fleas
For the coating of the test tubes, 9 mg of active compound are first dissolved in 1 ml of acetone p.a. and then diluted to the desired concentration with acetone p.a. 250 μl of the solution are distributed homogeneously on the inner walls and the base of a 25 ml glass tube by turning and rocking on an orbital shaker (rocking rotation at 30 rpm for 2 h). With 900 ppm of active compound solution and internal surface area 44.7 cm^2, given homogeneous distribution, an area-based dose of 5 μg/cm^2 is achieved.
After the solvent has evaporated off, the tubes are populated with 5-10 adult cat fleas (Ctenocephalides felis), sealed with a perforated plastic lid and incubated in a horizontal position at room temperature and ambient humidity. After 48 h, efficacy is determined. To this end, the tubes are stood upright and the fleas are knocked to the base of the tube. Fleas which remain motionless at the base or move in an uncoordinated manner are considered to be dead or moribund.
100% efficacy means that all the fleas were dead or moribund. 0% efficacy means that no fleas were harmed.

Phaedon cochleariae = Phaedon cochleariae spray test; assay type: in vivo; conditions: foliar, 168 h, application rate 500 g/ha, larvae on Chinese cabbage leaf discs, after 7 days, read-out: efficacy
Protocol: Phaedon cochleariae—Spray Test
(§7) Solvent: 78.0 parts by weight of acetone • • 1.5 parts by weight of dimethylformamide
as §4, §5
Discs of Chinese cabbage leaves (Brassica pekinensis) are sprayed with an active compound formulation of the desired concentration and, after drying, populated with larvae of the mustard beetle (Phaedon cochleariae).
After 7 days, the efficacy in % is determined. 100% means that all the beetle larvae have been killed; 0% means that no beetle larvae have been killed.

Spodoptera frugiperda = Spodoptera frugiperda spray test; assay type: in vivo; conditions: application rate 500 g/ha; caterpillars on maize leaf discs; after 7 days
Protocol: Spodoptera frugiperda—Spray Test
as §7, §4, §5
Leaf discs of maize (Zea mays) are sprayed with an active compound formulation of the desired concentration and, after drying, populated with caterpillars of the fall armyworm (Spodoptera frugiperda).
After 7 days, the efficacy in % is determined. 100% means that all the caterpillars have been killed; 0% means that no caterpillar has been killed.

Lucilia cuprina = Lucilia cuprina test; assay type: in vivo; conditions: application rate 100 ppm; L1 larvae; after 2 days
Protocol: as §1, §2
About 20 L1 larvae of the Australian sheep blowfly (Lucilia cuprina) are transferred into a test vessel containing minced horsemeat and the active compound formulation of the desired concentration.
After 2 days, the kill in % is determined. 100% means that all the larvae have been killed; 0% means that no larvae have been killed.

SMILES | pest or weed control at 160 µg/disc, 160 µg/well (Diabrotica balteata) | pest or weed control at 500 g/ha (Myzus persicae [1]) | chromatographic logP [3] | pest or weed control at 4 ppm (Myzus persicae [2]; application rate 4 ppm) | pest or weed control at 500 g/ha (Phaedon cochleariae) | further results
O=C(OC1CCC1)C(=O)c1c([O-])[n+]2ccccc2n1Cc1cnc(Cl)s1 [Example I-035] |  |  |  |  |  | efficacy (kill in %) (Musca domestica): 100%; efficacy (Myzus persicae [1]): 100%; efficacy (Myzus persicae [2]; application rate 4 ppm): 100%
COCC(=O)c1c([O-])[n+]2ccccc2n1Cc1cnc(Cl)s1 [Example I-010, 1-[(2-Chlorothiazol-5-yl)methyl]-2-(2-methoxyacetyl)imidazo[1,2-a]pyridin-4-ium-3-olate] | 100% | 100% | 1.13 | 100% |  | pest or weed control at 20 ppm (Myzus persicae [2]; application rate 20 ppm): 100%
O=Cc1c([O-])[n+]2ccccc2n1Cc1cnc(Cl)s1 [Example I-015, 1-[(2-Chlorothiazol-5-yl)methyl]-2-formylimidazo[1,2-a]pyridin-4-ium-3-olate] | 100% | 90% | 1.01 | 100% |  | efficacy (Ctenocephalides felis): 100%
Cc1ccc[n+]2c([O-])c(C(=O)C(F)(F)Cl)n(Cc3cnc(Cl)s3)c12 [Example I-060] |  |  |  |  | 100% | efficacy (Spodoptera frugiperda): 100%
O=C(c1cccs1)c1c([O-])[n+]2ccccc2n1Cc1cnc(Cl)s1 [Example I-026] |  |  |  |  |  | efficacy (Diabrotica balteata): 100%; efficacy (kill in %) (Lucilia cuprina): 100%; efficacy (Myzus persicae [2]; application rate 4 ppm): 100%
O=C(c1cccc(C(F)(F)F)c1)c1c([O-])[n+]2ccccc2n1Cc1cnc(Cl)s1 [Example I-023] |  |  |  |  |  | efficacy (Diabrotica balteata): 100%; efficacy (Myzus persicae [1]): 90%; efficacy (kill in %) (Lucilia cuprina): 95%; efficacy (Myzus persicae [2]; application rate 4 ppm): 100%
COC(=O)C(=O)c1c([O-])[n+]2cccc(C)c2n1Cc1cnc(Cl)s1 [Example I-045] | 100% | 100% |  | 100% | 100% | efficacy (kill in %) (Lucilia cuprina): 90%
O=C(OCC1CC1)C(=O)c1c([O-])[n+]2ccccc2n1Cc1cnc(Cl)s1 [Example I-034, 1-[(2-chlorothiazol-5-yl)methyl]-2-[2-(cyclopropylmethoxy)-2-oxoacetyl]imidazo[1,2-a]pyridin-4-ium-3-olate] |  | 90% |  | 100% |  | efficacy (kill in %) (Musca domestica): 100%; chromatographic logP ([3]; HPLC, reversed-phase column (C18), 43° C, acidic (HCOOH), read-out: log P (HCOOH)): 1.94
Cc1ccc[n+]2c([O-])c(C(=O)C(F)(F)C(F)(F)F)n(Cc3cnc(Cl)s3)c12 [Example I-062] |  | 90% |  | 100% | 100% | 
O=C(c1c([O-])[n+]2ccccc2n1Cc1cnc(Cl)s1)C(Cl)(Cl)Cl [Example I-011, 1-[(2-Chlorothiazol-5-yl)methyl]-2-(2,2,2-trichloroacetyl)imidazo[1,2-a]pyridin-4-ium-3-olate] | 100% | 90% | 2.44 | 100% |  | efficacy (Spodoptera frugiperda): 100%
Cc1ccc[n+]2c([O-])c(C(=O)C(F)F)n(Cc3cnc(Cl)s3)c12 [Example I-061] |  |  |  | 100% | 100% | efficacy (Spodoptera frugiperda): 100%
O=C(CCl)c1c([O-])[n+]2ccccc2n1Cc1cnc(Cl)s1 [Example I-005, 2-(2-Chloroacetyl)-1-[(2-chlorothiazol-5-yl)methyl]imidazo[1,2-a]pyridin-4-ium-3-olate] | 80% |  | 1.58 | 100% |  | pest or weed control at 20 ppm (Myzus persicae [2]; application rate 20 ppm): 100%
O=C(c1ccccc1)c1c([O-])[n+]2ccccc2n1Cc1cnc(Cl)s1 [Example I-013] |  |  |  |  |  | efficacy (Diabrotica balteata): 80%; efficacy (Ctenocephalides felis): 100%; efficacy (kill in %) (Musca domestica): 90%; efficacy (Myzus persicae [1]): 100%; efficacy (Myzus persicae [2]; application rate 4 ppm): 100%; efficacy (Myzus persicae [2]; application rate 20 ppm): 100%
CCNC(=O)c1c([O-])[n+]2ccccc2n1Cc1cnc(Cl)s1 [Example I-018] |  |  |  |  |  | efficacy (Diabrotica balteata): 100%; efficacy (kill in %) (Musca domestica): 85%; efficacy (Myzus persicae [1]): 100%; efficacy (kill in %) (Lucilia cuprina): 100%; efficacy (Myzus persicae [2]; application rate 4 ppm): 100%; efficacy (Myzus persicae [2]; application rate 20 ppm): 100%
Cc1ccc[n+]2c([O-])c(C(=O)C(=O)OC3CCC3)n(Cc3cnc(Cl)s3)c12 [Example I-065] |  | 90% |  | 100% | 100% | 
CC(=O)c1c([O-])[n+]2cccc(C)c2n1Cc1cnc(Cl)s1 [Example I-044] | 100% | 100% |  | 100% | 83% | 
CC(C)NC(=O)c1c([O-])[n+]2ccccc2n1Cc1cnc(Cl)s1 [Example I-025, 1-[(2-Chlorothiazol-5-yl)methyl]-2-(isopropylcarbamoyl)imidazo[1,2-a]pyridin-4-ium-3-olate] |  |  | 1.66 | 100% |  | efficacy (kill in %) (Musca domestica): 100%
CO/N=C/C(=O)c1c([O-])[n+]2ccccc2n1Cc1cnc(Cl)s1 [Example I-059, 1-[(2-chlorothiazol-5-yl)methyl]-2-[(2E)-2-methoxyiminoacetyl]imidazo[1,2-a]pyridin-4-ium-3-olate] | 100% | 70% | 1.45 | 100% |  | 
